Twelve compounds from patent US20220030868A1, “FUNGICIDAL HALOMETHYL KETONES AND HYDRATES” (FMC CORPORATION, priority 2018, published 2022) can be followed below.

Format in all cases: in vivo
The test system of one test is Phakopsora pachyrhizi. As to the kind of experiment: Test A: test suspension sprayed on soybean seedlings one day before inoculation with Phakopsora pachyrhizi spores (Asian soybean rust), visual disease rating. The settings on record: 100 = 100% disease control, 0 = no control; for pest or weed control at 10 ppm / pest or weed control at 50 ppm: Phakopsora pachyrhizi; for pest or weed control at 50 ppm: 50 ppm test suspension. A digest of the protocol: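 Soybean seedlings were sprayed to run-off with test suspension (acetone 3% of volume, acetone/water 50/50, 250 ppm PEG400) and inoculated with rust spores one day later. Incubation: 24 h saturated atmosphere at 22° C, then 8 days growth chamber at 22° C; scores 0–100 relative to untreated controls.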

Test [1] has as its system Puccinia recondita f. sp. tritici. As to the kind of experiment: Test B: test suspension sprayed on wheat seedlings one day before inoculation with Puccinia recondita f. sp. tritici spores (wheat leaf rust), disease rating. As to conditions: 100 = 100% disease control, 0 = no control; for pest or weed control at 50 ppm: 50 ppm test suspension. An outline of the steps: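 Wheat seedlings were sprayed to run-off with compound suspended in 50/50 acetone/water containing 250 ppm PEG400, then inoculated with P. recondita f. sp. tritici spores the next day. Plants were held 24 h in saturated air at 20 °C, then 6 days in a growth chamber at 20 °C. Disease control was rated 0–100% relative to controls, with some entries run at 50 or 10 ppm.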

The next test has as its system Uncinula necator. As to the kind of experiment: Test C: test suspension sprayed on grape seedlings one day before inoculation with Uncinula necator spores (grape powdery mildew), disease rating. As to conditions: 50 ppm test suspension, 100 = 100% disease control; for pest or weed control at 50 ppm: Erysiphe necator. From the text:
General protocol for preparing test suspensions for Tests A-C: the test compounds were first dissolved in acetone in an amount equal to 3% of the final volume and then suspended at the desired concentration (in ppm) in acetone and purified water (50/50 mix by volume) containing 250 ppm of the surfactant PEG400 (polyhydric alcohol esters). The resulting test suspensions were then used in Tests A-C. The test solution was sprayed to the point of run-off on grape seedlings. The following day the seedlings were inoculated with a spore suspension of Uncinula necator (the causal agent of grape powdery mildew) and incubated in a growth chamber at 20° C. for 12 days, after which time disease ratings were made. Results for Tests A-C are given in Table A. In the Table, a rating of 100 indicates 100% disease control and a rating of 0 indicates no disease control (relative to the controls). An asterisk “*” or a double asterisk “**” next to the rating value indicates a 50 ppm or 10 ppm test suspension was used, respectively. A dash (-) indicates the compound was not tested.

Broadly, the pest or weed control is the degree to which the test organism was suppressed or injured, in per cent. Read a low pest or weed control as a weak effect.

Marks after values point to notes of the source that are not given here.

Turning to `CC#CCOC(=O)c1cnn(Cc2ccc(OCC3(C(F)(F)F)OCCO3)cc2)c1` [Compound 163, 2-butyn-1-yl 1-[[4-[[2-(trifluoromethyl)-1,3-dioxolan-2-yl]methoxy]phenyl]methyl]-1H-pyrazole-4-carboxylate], the pest or weed control at 10 ppm in the test on Phakopsora pachyrhizi (10 ppm test suspension) was 100%; in test [1] (10 ppm test suspension), 0%. Moreover, the pest or weed control at 50 ppm in the test with Uncinula necator worked out at 100%.

As to `N#CCCCOC(=O)c1cnn(Cc2ccc(OCC3(C(F)(F)F)OCCO3)cc2)c1` [Compound 171, 3-cyanopropyl 1-[[4-[[2-(trifluoromethyl)-1,3-dioxolan-2-yl]methoxy]phenyl]methyl]-1H-pyrazole-4-carboxylate], the pest or weed control at 10 ppm with Phakopsora pachyrhizi (10 ppm test suspension) turned out to be 100%; in test [1] (10 ppm test suspension), 0%. Also, the pest or weed control at 50 ppm in the test on Uncinula necator is 99%.

Consider `CCCCOC(=O)c1cnn(Cc2ccc(O/C=C(\OCC)C(F)(F)F)cc2)c1` [Compound 218, butyl 1-[[4-[[(1Z)-2-ethoxy-3,3,3-trifluoro-1-propen-1-yl]oxy]phenyl]methyl]-1H-pyrazole-4-carboxylate], for which the pest or weed control at 10 ppm is 100% in the test with Phakopsora pachyrhizi (10 ppm test suspension) and 0% in test [1] (10 ppm test suspension). This compound also showed a pest or weed control at 50 ppm in the test on Uncinula necator of 100%.

`CCO/C(=C\Oc1ccc(Cn2cc(C(=O)OCCCCl)cn2)cc1)C(F)(F)F` [Compound 221, 3-chloropropyl 1-[[4-[[(1Z)-2-ethoxy-3,3,3-trifluoro-1-propen-1-yl]oxy]phenyl]methyl]-1H-pyrazole-4-carboxylate]: the pest or weed control at 10 ppm in the test on Phakopsora pachyrhizi (10 ppm test suspension) was 100%; in test [1] (10 ppm test suspension) it was 0%. The compound also registered a pest or weed control at 50 ppm in the test on Uncinula necator of 100%.

For the compound `CCOC(=O)c1cnn(Cc2ccc(O/C=C(\OCC)C(F)(F)F)c(F)c2)c1` [Compound 262, ethyl 1-[[4-[[(1Z)-2-ethoxy-3,3,3-trifluoro-1-propen-1-yl]oxy]-3-fluorophenyl]methyl]-1H-pyrazole-4-carboxylate], the pest or weed control at 10 ppm was found to be 100% in the test with Phakopsora pachyrhizi (10 ppm test suspension) and 0% in test [1] (10 ppm test suspension). The compound also showed a pest or weed control at 50 ppm in the test with Uncinula necator of 99%.

For the compound `CCOC(=O)c1cnn(Cc2cccc(O/C=C(\OCC)C(F)(F)F)c2)c1` [Compound 265, ethyl 1-[[3-[[(1Z)-2-ethoxy-3,3,3-trifluoro-1-propen-1-yl]oxy]phenyl]methyl]-1H-pyrazole-4-carboxylate], the values for the pest or weed control at 50 ppm (in the test on Phakopsora pachyrhizi; in test [1]; in the test on Uncinula necator) were 100%, 0% and 100%, respectively.

Regarding `CCOC(=O)c1cnn(Cc2ccc(O/C=C(\OC(C)C)C(F)(F)F)cc2)c1` [compound 57], the “Test A rating (disease control)” value in the test on Phakopsora pachyrhizi (250 ppm test suspension) is recorded as 100%. Moreover, in test [1] (250 ppm test suspension), the “Test B rating (disease control)” value is 0%. The “Test C rating (disease control)” value in the test on Uncinula necator was 100* %.

Turning to `CCOC(=O)c1cnn(Cc2ccc(OCC3(C(F)(F)F)OCCO3)cn2)c1` [compound 124], the pest or weed control at 50 ppm with Phakopsora pachyrhizi turned out to be 100%; in test [1] it was 0%; in the test on Uncinula necator, 100%.

On to `CCO/C(=C\Oc1ccc(Cn2cc(C(=O)OC)cn2)cc1)C(F)(F)F` [compound 138], for which the “Test A rating (disease control)” value in the test with Phakopsora pachyrhizi (10 ppm test suspension) amounted to 100%. Besides, in test [1] (10 ppm test suspension), the “Test B rating (disease control)” value is 0%. In addition, the “Test C rating (disease control)” value with Uncinula necator is reported as 100* %.

Turning to `O=C(COC(=O)c1cnn(Cc2ccc(OCC3(C(F)(F)F)OCCO3)cc2)c1)c1ccccc1` [compound 170], in the test with Phakopsora pachyrhizi (10 ppm test suspension), the “Test A rating (disease control)” value is 100%. For the same compound, the “Test B rating (disease control)” value in test [1] (10 ppm test suspension) came to 0%. Further, in the test on Uncinula necator, the “Test C rating (disease control)” value is 100* %.

As to `C#CCOC(=O)c1cnn(Cc2ccc(O/C=C(\OCC)C(F)(F)F)cc2)c1` [compound 185], the “Test A rating (disease control)” value with Phakopsora pachyrhizi (10 ppm test suspension) came to 100%. In addition, the “Test B rating (disease control)” value in test [1] (10 ppm test suspension) came out at 0%. Moreover, the “Test C rating (disease control)” value in the test on Uncinula necator is listed as 100* %.

Regarding `CCO/C(=C\Oc1ccc(Cn2cc(C(=O)OCC(C)=O)cn2)cc1)C(F)(F)F` [compound 216], the “Test A rating (disease control)” value with Phakopsora pachyrhizi (10 ppm test suspension) amounted to 100%. The “Test B rating (disease control)” value in test [1] (10 ppm test suspension) was found to be 0%. In the test on Uncinula necator, the “Test C rating (disease control)” value is 100* %.
